Measured values taken from patent US20010007872A1, “METHOD OF TREATING ACUTE, CHRONIC AND/OR NEUROPATHIC PAIN” (priority 1998, published 2001).

Tests used:
[1] = molecular target: T1, NR2B subunit containing NMDA receptor (Rattus norvegicus, UniProt P35439+Q00960); test: Displacement of specific binding of racemic [3H](+)-(1S, 2S)-1-(4-hydroxy-phenyl)-2-(4-hydroxy-4-phenylpiperidino)-1-propanol ([3H]CP-101,606) from rat forebrain membranes; conditions: for Ratio [3H]Prazosin/[3H](+)-(1S, 2S)-1-(4-hydroxy-phenyl)-2-(4-hydroxy-4-phenylpiperidino)-1-propanol: selectivity for NR2B NMDA receptor over α1 adrenergic receptor, ratio of the two IC50, greater than three is considered selective
T1 construct: from rat forebrain membranes; from tissue; host or cells: forebrain membranes of adult male CD rats
T1 sequence (Q00960 27-1482, other chains not shown): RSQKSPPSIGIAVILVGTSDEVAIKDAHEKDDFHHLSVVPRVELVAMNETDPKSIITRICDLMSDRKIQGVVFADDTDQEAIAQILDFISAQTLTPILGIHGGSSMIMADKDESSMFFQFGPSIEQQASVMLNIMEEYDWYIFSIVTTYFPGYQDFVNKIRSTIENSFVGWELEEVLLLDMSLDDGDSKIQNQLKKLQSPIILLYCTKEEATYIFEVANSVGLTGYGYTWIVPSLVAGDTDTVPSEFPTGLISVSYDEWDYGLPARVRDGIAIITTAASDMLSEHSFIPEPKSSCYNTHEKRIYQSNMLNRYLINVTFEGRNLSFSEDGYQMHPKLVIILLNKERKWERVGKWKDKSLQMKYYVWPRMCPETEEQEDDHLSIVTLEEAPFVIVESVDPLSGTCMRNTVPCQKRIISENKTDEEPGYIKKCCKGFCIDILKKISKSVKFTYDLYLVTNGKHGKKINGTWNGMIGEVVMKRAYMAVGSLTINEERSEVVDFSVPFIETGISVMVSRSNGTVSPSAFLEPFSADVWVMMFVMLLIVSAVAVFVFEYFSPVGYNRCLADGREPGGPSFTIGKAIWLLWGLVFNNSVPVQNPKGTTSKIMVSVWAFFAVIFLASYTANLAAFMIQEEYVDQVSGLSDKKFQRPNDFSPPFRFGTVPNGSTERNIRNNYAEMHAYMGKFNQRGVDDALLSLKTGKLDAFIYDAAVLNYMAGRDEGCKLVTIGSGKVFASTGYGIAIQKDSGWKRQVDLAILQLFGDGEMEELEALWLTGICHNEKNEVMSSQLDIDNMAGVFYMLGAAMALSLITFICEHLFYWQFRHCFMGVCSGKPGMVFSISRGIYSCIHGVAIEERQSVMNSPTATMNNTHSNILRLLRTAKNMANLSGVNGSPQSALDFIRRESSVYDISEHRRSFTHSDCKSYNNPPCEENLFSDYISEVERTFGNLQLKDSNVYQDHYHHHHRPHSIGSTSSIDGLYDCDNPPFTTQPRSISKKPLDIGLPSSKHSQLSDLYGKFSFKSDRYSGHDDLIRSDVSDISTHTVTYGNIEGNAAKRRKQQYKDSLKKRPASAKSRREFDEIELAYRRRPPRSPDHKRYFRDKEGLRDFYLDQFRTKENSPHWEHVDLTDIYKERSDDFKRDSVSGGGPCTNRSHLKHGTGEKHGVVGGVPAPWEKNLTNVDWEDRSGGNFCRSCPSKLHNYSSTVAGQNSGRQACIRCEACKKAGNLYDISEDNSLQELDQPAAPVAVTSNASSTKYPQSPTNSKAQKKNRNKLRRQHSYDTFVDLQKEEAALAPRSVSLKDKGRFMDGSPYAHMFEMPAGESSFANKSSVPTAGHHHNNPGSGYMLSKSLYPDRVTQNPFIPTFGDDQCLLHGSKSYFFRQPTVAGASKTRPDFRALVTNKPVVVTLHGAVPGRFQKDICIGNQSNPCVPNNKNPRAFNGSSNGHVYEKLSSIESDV
Method: This affinity is assessed in a radioligand binding assay as described below.
The binding of racemic [^3H] […] Forebrains of adult male CD rats are homogenized in 0.32M sucrose at 4° C. The crude nuclear pellet is removed by centrifugation at 1,000×g for 10 min., and the supernatant centrifuged at 17,000×g for 25 min. The resulting pellet is resuspended in 5 mM Tris acetate pH 7.4 at 4° C. for 10 min. to lyse cellular particles and again centrifuged at 17,000×g. The resulting pellet is washed twice in Tris acetate, resuspended at 10 mg protein/ml and stored at −20° C. until use.
For binding assays, membranes are thawed, homogenized, and diluted to 0.5 mg protein/ml with 50 mM Tris HCl, pH 7.4. Compounds under study are added at various concentrations followed by racemic [^3H] […] Filters are washed for 10 s with ice cold Tris HCl buffer and the radioactivity trapped on the filter quantified by liquid scintillation spectroscopy. […] Specific binding is defined as total binding minus nonspecific binding.
(§1) Affinity for the NR2B subunit containing NMDA receptor is measured as the IC50 for displacement of specific binding of racemic [^3H]

α1-adrengergic receptor = test: Displacement of specific binding of [3H]prazosin from rat forebrain membranes; conditions: 0.2 nM [3H]prazosin, IC50 for displacement of specific binding
Method: as §1
Forebrains of adult male Sprague Dawley rats are homogenized in 20 volumes of ice cold 50 mM Tris/HCl buffer (pH 7.7). The homogenate is centrifuged at 50,000 X g for 10 min. at 4° C. The pellet is resuspended and centrifuged under identical conditions and the final pellet is resuspended in 80 volumes of 50 mM Tris/HCl (pH 8.0) at 4° C.
For binding assays, compounds under study are added at various concentrations to 500 μg membrane protein in 1 ml of 50 mM Tris/HCl buffer, followed by [^3H]prazosin (Amersham, specific activity 33 Ci/mmol, 0.2 nM final concentration). Following incubation for 30 min at 25° C. in a shaking water bath, samples are filtered onto Whatman GFB glass fiber filters using a MB48R Cell Harvester (Brandel Research and Development Laboratories, Gaithersburg Md.). Filters are washed three times for 10 s with ice cold Tris HCl buffer and the radioactivity trapped on the filter quantified by liquid scintillation spectroscopy. Nonspecific binding is determined in parallel incubations containing 100 nM prazosin. Specific binding is defined as total binding minus nonspecific binding.

OC(CN1CCC(Cc2ccc(F)cc2)CC1)c1ccc(Cl)cc1 (stereo not shown) [Eliprodil, reference compound]
IC50 [1]: 450 ± 130 nM | Ratio [3H]Prazosin/[3H](+)-(1S, 2S)-1-(4-hydroxy-phenyl)-2-(4-hydroxy-4-phenylpiperidino)-1-propanol [1]: 2.2 | IC50 (α1-adrengergic receptor): 980 ± 220 nM

Oc1ccc2c(c1)OC[C@@H](N1CCC(O)(c3ccc(F)cc3)CC1)[C@H]2O [(3R,4S)-3-[4-(4-fluorophenyl)-4-hydroxy-piperidin-1-yl] -chroman-4,7-diol]
IC50 [1]: 18 ± 3 nM | Ratio [3H]Prazosin/[3H](+)-(1S, 2S)-1-(4-hydroxy-phenyl)-2-(4-hydroxy-4-phenylpiperidino)-1-propanol [1]: ≧555 | IC50 (α1-adrengergic receptor): > 10000 nM

C[C@@H]([C@@H](O)c1ccc(O)cc1)N1CCC(O)(c2ccccc2)CC1 [(1S,2S)-1-(4-hydroxyphenyl)-2-(4-hydroxy-4-phenylpiperidin-1-yl)-1-propanol]
IC50 (α1-adrengergic receptor): 19500 nM

Cc1cc([C@@H](OS(C)(=O)=O)[C@@H](C)N2CCC(O)(c3ccc(F)cc3)CC2)ccc1O (racemic) [(1R*, 2R*)-1-(4-hydroxy-3-methylphenyl)-2-(4-(4-fluorophenyl)-4-hydroxypiperidin-1-yl)-propan-1-ol-mesylate]
Ratio [3H]Prazosin/[3H](+)-(1S, 2S)-1-(4-hydroxy-phenyl)-2-(4-hydroxy-4-phenylpiperidino)-1-propanol [1]: 714 | IC50 (α1-adrengergic receptor): 10000 nM

Oc1ccc2c(c1)OCC(N1CCC(O)(c3ccc(F)cc3)CC1)[C@H]2O (stereo in doubt)
melting point: 159 to 160 °C

COc1cc([C@H](O)[C@H](C)N2CCC(O)(c3ccccc3)CC2)ccc1O [1S, 2S 1-(4-hydroxy-3-methoxyphenyl)-2-(4-hydroxy-4-phenyl-piperidin-1-yl)-propan-1-ol]
IC50 [1]: 94 nM | Ratio [3H]Prazosin/[3H](+)-(1S, 2S)-1-(4-hydroxy-phenyl)-2-(4-hydroxy-4-phenylpiperidino)-1-propanol [1]: 86 | IC50 (α1-adrengergic receptor): 8100 nM
